# Results: patent US20260226036A1, “THIOUREA ANTIO[…] NEURO[…]” (priority 2023, published 2026)
# How the values were obtained:
# SW mice = test: Cocaine-conditioned locomotion, expression test; format: in vivo, mouse; conditions: Paired mice, cocaine 15 mg/kg 24 h earlier; 10 mg/kg prior to testing
# Experimental: The goal of this pilot study was to determine if the novel small molecule was effective in preventing cocaine-conditioned motor activity of SW mice. […] Cocaine results in enhanced locomotor activity in mice. Mice that were previously injected with 15 mg/kg cocaine, either in their home cages (Unpaired) or in the novel test environment (Paired), were tested 24 h later.
# mouse model of CPP = test: Mouse model of CPP; format: in vivo
# IL-1β cytokine = IL-1β cytokine ELISA of SHSY-5Y supernatants; format: cell-based, human; conditions: cocaine 1.5 mM or METH 3.5 mM alone; 24 h
# Experimental: Supernatants were collected and the IL-1β cytokine concentration was assessed using ELISA kit and following manufacturer instruction (RayBiotech). […] N=3, p<0.05; p<0.01, One-way ANOVA, GraphPad Prism.
# [1] = Neuroprotection MTT assay in SHSY5Y cells; format: cell-based, human; conditions: insult agent alone, HT22 or SHSY5Y cells, not told apart, read-out: cell proliferation (viable cells, MTT); for viability: 24 h
# Description: MTT assay was used for measuring viable cells at absorbance of 490 nm. […] (FIGS. 5C-5D).
# methionine synthase (MS) = test: Intracellular methionine synthase ELISA of SH-SY5Y cell lysate; format: cell-based, human; conditions: cocaine 1.5 mM alone; 24 hours; FIG. 6B
# Experimental: Cell lysates were collected and quantified with Pierce™ BCA Protein Assay. Level of intracellular methionine synthase (MS) were assessed using ELISA of the cell lysate.
# catalase (CAT) = test: Catalase ELISA in SH-SY5Y cells; format: cell-based, human; conditions: cocaine 1.5 mM alone; 24 hours
# Experimental: Cell lysates were collected and quantified with Pierce™ BCA Protein Assay. Level of intracellular SOD, catalase, glutathione peroxidase and total antioxidant concentration were assessed using ELISA kits.
structure (smiles),measurement,setting,value
"CNC(=S)NC [DMTU, dimethyl thiourea]",expression of increased (cocaine-conditioned) locomotor activity,SW mice,effective
same,bioactivity in the mouse model of CPP,mouse model of CPP; 5 mg/kg,potent bioactivity
same,bioactivity in the mouse model of CPP,mouse model of CPP; 10 mg/kg,potent bioactivity
"CN[C@@H](C)Cc1ccccc1 [METH, methamphetamine]",IL-1β,IL-1β cytokine,trend in increase
same,viability,[1],~50%
"CC(C)(C)OO [TBHP, t-butyl hydrogen peroxide]",viability at 24 h,[1],~50%
COC(=O)[C@H]1[C@@H](OC(=O)c2ccccc2)C[C@@H]2CC[C@H]1N2C [cocaine],effect on MS,methionine synthase (MS),no significant effect
same,viability,[1],~50%
same,CAT activity,catalase (CAT),no significant effect
